# Key:
# HCT116KO53 = experiment: Cytotoxic MTS assay, HCT116 p53 knockout 2D; format: cell-based; conditions: HCT-116, human tumors 2D, 72 h, median of five assays
# From the text: (§1) The cancer cell lines used in the cytotoxic assays were acquired from the American Tissue Culture Collection (ATCC) (Manassas, VA, USA) and maintained as described previously. The MRC-5 and BJ human fibroblasts were used as non-tumoral control cells. The (MRC-5 LD and BJ LD) are also human fibroblast cell lines resistant to doxorubicin. […] The Raji and Ramos cell lines correspond to B-cell leukemia. Other cells, such as U2OS, represent a child osteosarcoma, while HCT116 is a colorectal tumor cell line. (HCT116p53^−/−, Horizon Discovery Ltd., Cambridge, UK) is a similar cell line with its p53 gene knocked down, serving as a model of human cancer frequently associated with a poor prognosis. The cells were maintained in Nunc/corning 80 cm^2 plastic tissue culture flasks and cultured in a cell culture medium according to ATCC or Horizon recommendations (McCoy, DMEM/RPMI 1640 with 5 g/L glucose, 2 mM glutamine, 100 U/mL penicillin, […] streptomycin, 10% fetal calf serum, and NaHCO3). The compounds were freshly dissolved in DMSO. The final concentration of DMSO was 0.01% in the cell culture.
# (§2) The in vitro cytotoxicity of compounds (1–7) was assessed using the standard 3-(4,5-dimethyl-thiazol-2yl)-5-(3-carboxymethoxyphenyl)-2-(sulfophenyl)-2H-tetrazolium (MTS). The assay was performed at the Institute of Molecular and Translational Medicine using a robotic platform (High-ResBiosolutions, Beverly, MA, USA). Cell suspensions were prepared and diluted according to the specific cell type and the expected target cell density (25,000–35,000 cells/mL, based on cell growth characteristics). An automatic pipettor (30 μL) was used to add cells into 384-well microtiter plates. All tested compounds were dissolved in 100% DMSO, and four-fold dilutions of the intended test concentrations were added in 0.15 μL aliquots at time zero to the microtiter plate wells by the echo acoustic non-contact liquid handler Echo550 (Labcyte, San Jose, CA, USA). The assays were accomplished in technical duplicates and at least three biological replicates. The cells were incubated with the tested compound for 72 h at 37 °C in a 5% CO2 atmosphere with 100% humidity. At the end of the incubation period, cells were assayed using the MTS test. Aliquots (5 μL) of the MTS stock solution were pipetted into each well and incubated for 1–4 h. After this incubation period, the optical density (OD) was measured at 490 nm using an Envision reader (PerkinElmer, Waltham, MA, USA). Tumor cell survival (TCS) was calculated using the following equation: TCS = (OD drug-exposed well/mean OD control wells) × 100%. The IC50 value, representing the concentration of the compound lethal to 50% of the tumor cells, was calculated from the corresponding dose-response curves using Dotmatics software (Updated version 2022, London, UK). After three days of incubation on the cancer cell lines and normal fibroblasts, the […] (IC50) were obtained. Five assays were performed for each cell line. The standard error of the assays was lower than 10%, as assessed by the triplicate assays.
# U2OS spheroids = experiment: Spheroid viability assay (CellTiter-Glo 3D), U2OS spheroids; format: cell-based; conditions: U2OS, human tumors spheroids, 72 h, 100 pM to 50 μM
# Experimental: (§3) Spheroid culture aims to analyze the drug’s effect on complex structures resembling solid tumors. The spheroids were prepared using the specific nonadherent plates for spheroid formation (Nunc Sphera, Thermo Fisher, Waltham, MA, USA) according to the simple protocol outlined by the manufacturer. The cell lines HCT116 parental, HCT116KOTp53, A549, and U2OS were cultured at a density of 2500 cells per well using medium containing 10% fetal calf serum and antibiotics: McCoy’s 5A medium for HCT116, F-12K (Kaighn’s Modified) for A549, and Dulbecco’s Modified Eagle Medium (DMEM). The cells were grown in culture for 48 h as recommended by the manufacturer and as described by Das et al. and Muñoz-Garcia et al..
# (§4) The cell viability of the treated spheroids was assessed using the kit CellTiter-Glo 3D (Promega Corporation, Madison, WI, USA). The kit is designed to measure ATP as an indicator of viability, generating a luminescent readout that is more sensitive than colorimetric or fluorescence-based methods. The spheroids were cultivated with compounds at concentrations ranging from 100 pM to 50 μM in triplicate for 72 h, and the luminescence was measured using the Enspire apparatus (PerkinElmer). A standard curve was performed for each analysis as recommended by the manufacturer.
# MRC-5 = experiment: Cytotoxic MTS assay, MRC-5 fibroblasts; format: cell-based; conditions: MRC5, human fibroblasts, 72 h, median of five assays
# From the text: as §1, §2
# BJ LD = experiment: Cytotoxic MTS assay, BJ LD fibroblasts (doxorubicin-resistant); format: cell-based; conditions: Fibroblast, doxorubicin-resistant human fibroblasts, 72 h, median of five assays
# From the text: as §1, §2
# HCT116KO53 spheroids = experiment: Spheroid viability assay (CellTiter-Glo 3D), HCT116 p53 KO spheroids; format: cell-based; conditions: HCT-116, human tumors spheroids, 72 h, 100 pM to 50 μM
# Experimental: as §3, §4
# A549 = experiment: Cytotoxic MTS assay, A549 2D; format: cell-based; conditions: A549, human tumors 2D, 72 h, median of five assays
# From the text: as §1, §2
# HCT116 par spheroids = experiment: Spheroid viability assay (CellTiter-Glo 3D), HCT116 parental spheroids; format: cell-based; conditions: HCT-116, human tumors spheroids, 72 h, 100 pM to 50 μM
# Experimental: as §3, §4
# U2OS = experiment: Cytotoxic MTS assay, U2OS 2D; format: cell-based; conditions: U2OS, human tumors 2D, 72 h, median of five assays
# From the text: as §1, §2
# [1] = test system: different cell lines (CCRF-CEM, K562, Raji, Ramos, HCT116, HCT116 p53KO, A549, U2OS); experiment: Peroxide formation assessment using DCFDA; format: cell-based, human; conditions: compounds at 5-fold the IC50; percentage increase versus negative control
# Experimental: The assessment of peroxides was performed as described by Figuero et al. with some modifications. Briefly, the different cell lines, at 10,000 cells per well, were incubated in a sterile 96-well glass-bottom plate from Celvis (München, Germany), which features a black polystyrene frame with high-quality #1.5 glass, suitable for fluorescent assessment. After one hour of incubation in the incubator at 37 °C, 5% CO2, 50 µL of 20 µM 2′,7′-dichlorofluorescein diacetate (DCFDA), Thermo Fisher, was added. The cells were incubated for an additional 30 min to allow for the internalization of the fluorophore. Then, 50 µL of the compounds diluted in media at a concentration 5-fold the IC50 calculated in cytotoxic studies, were added to each well, and the plates were read on an Enspire (PerkinElmer). Fluorescence was measured using the following parameters: excitation at 495 nm and emission at 530 nm. The temperature was maintained at 37 °C, and the readings were taken in bottom mode with three readings per well. Wells containing only RPMI, with 10% FCS, were included as background negative controls. Each experiment was repeated three times on separate occasions (n = 3). Cisplatin was used as a positive control, and the values were calculated based on cells without stimuli (negative control for each cell line). Hydrogen peroxide was used as a possible early marker for apoptosis as described by Miyazato et al..
# K562 = experiment: Cytotoxic MTS assay, K562; format: cell-based; conditions: K562, human leukemia cell line, 72 h, median of five assays
# From the text: as §1, §2
Structure (SMILES),IC50 (HCT116KO53),IC50 (U2OS spheroids),IC50 (MRC-5),IC50 (BJ LD),IC50 (HCT116KO53 spheroids),IC50 (A549),IC50 (HCT116 par spheroids),IC50 (U2OS),Peroxide formation (DCFDA) [1],IC50 (K562)
"C=C(C)C1CCC23CC(CCC2C1(C)CCC(=O)O)C(C)C3=O (single isomer, unassigned; ent-3) [Compound 5, Ent-3,4-Seco-15-Oxo-Kaur-4(19)-en-3-Oic Acid]",> 50 µM,> 50 µM,> 50 µM,> 50 µM,> 50 µM,> 50 µM,> 50 µM,> 50 µM,did not induce peroxide formation,> 50 µM
"C=C(C)C1CCC23CC(CCC2C1(C)CCC(=O)OC(C)=O)C(C)C3=O (single isomer, unassigned; ent-3) [Compound 6, Ent-3,4-Seco-15-Oxo-Kaur-4(19)-en-Acetic Anhydride]",> 50 µM,> 50 µM,> 50 µM,> 50 µM,> 50 µM,> 50 µM,> 50 µM,> 50 µM,did not induce peroxide formation,> 50 µM
"C=C1C(=O)C23CCC(C(=C)C)C(C)(CCC(=O)OC)C2CCC1C3 (stereo not shown) [Compound 2, Caracasine]",1.91 µM,> 50 µM,6.84 µM,7.42 µM,> 50 µM,8.39 µM,> 50 µM,3.19 µM,least active,3.29 µM
"C=C1C(=O)C23CCC(C(=C)C)C(C)(CCC(=O)OC(C)=O)C2CCC1C3 (stereo not shown) [Compound 7, Caracasine-Acetic Anhydride]",1.91 µM,> 50 µM,6.45 µM,7.63 µM,> 50 µM,3.72 µM,> 50 µM,2.21 µM,most active,4.6 µM
